Measurements reported in patent US10570155B2, “Imidazooxazole derivative having antitumor effect, and pharmaceutical composition including same” (KOREA INSTITUTE OF SCIENCE AND TECHNOLOGY, priority 2016, dated 2020).
pIC50: −log10 of the molar value.

Assays:
[1] = tested on: UACC-62; assay: NCI cancer cell line panel screening (SRB), melanoma cell line UACC-62; assay type: cell-based; details: Homo sapiens, read-out: IC50 against melanoma cell line in vitro
Description: (§1) According to the standard protocol (http://dtp.nci.nih.gov/dtpstandard/dwindex/index.isp) of the US National Cancer Institute (NCI) (www.dtp.nci.nih.gov), screening of a cancer cell line panel was performed. Briefly, human cell lines were allowed to grow in an RPMI 1640 medium containing 5% FBS and 2 mM L-glutamine. For a general screening experiment, cells were inoculated in 96-well microtiter plates in 100 μl at a plating density ranging from 5000 cells/well to 40,000 cells/well depending on the doubling time of individual cell lines. After cell inoculation, the microtiter plates were incubated at 37° C., 5% CO2, 95% air, and 100% relative humidity for 24 hours prior to addition of test compounds. 24 hours later, two plates of each cell line were fixed in situ with trichloroacetic acid (TCA) to measure the cell population for each cell line at the time of test compound addition (Tz). Test compounds were solubilized in dimethyl sulfoxide at 400-fold the intended final maximum test concentration, and stored frozen prior to use. At the time of compound addition, an aliquot of frozen concentrate was thawed and diluted to twice the intended final maximum test concentration with a complete medium containing 50 μg/ml of gentamicin. Additional four concentration of 10-fold or ½ log serial dilutions were made to provide a total of five compound concentrations plus control. Aliquots of 100 μl of these different compound dilutions were added to appropriate microtiter wells already containing 100 μl of medium, resulting in the required final compound concentrations.
(§2) Following compound addition, the plates were incubated for additional 48 hours at 37° C., 5% CO2, 95% air, and 100% relative humidity. For adherent cells, the assay was terminated by the addition of cold TCA. Cells were fixed in situ by the gentle addition of 50 μl of cold 50% (w/v) TCA (final concentration, 10% TAC) and incubated at 4° C. for 60 minutes. The supernatant was discarded, and the plates were washed five times with tap water and air-dried. A sulforhodamine B (SRB) solution (100 μl) at 0.4% (w/v) in 1% acetic acid was added to each well, and plates were incubated at room temperature for 10 minutes. After staining, unbound dye was removed by washing five times with 1% acetic acid and the plates were air-dried. Bound stain was subsequently solubilized with 10 mM Trizma base, and the absorbance was read on an automated plate reader at a wavelength of 515 nm. For suspension cells, the methodology was the same except that the assay was terminated by fixing settled cells at the bottom of the wells by gently adding 50 μl of 80% TCA (final concentration, 16% TCA). Using the seven absorbance measurements [time zero (Tz), control growth (C), and test growth rate in the presence of compound at the five concentration levels (Ti)], the growth percentage was calculated at each of the compound concentration levels. Growth inhibition percentage was calculated as follows: [(Ti−Tz)/(C−Tz)]×100 for concentrations for which Ti>/=Tz [(Ti−Tz)/Tz]×100 for concentrations for which Ti<Tz.

[2] = tested on: M14; assay: NCI cancer cell line panel screening (SRB), melanoma cell line M14; assay type: cell-based; details: Homo sapiens, read-out: IC50 against melanoma cell line in vitro
Description: as §1, §2

[3] = tested on: SK-MEL-5; assay: NCI cancer cell line panel screening (SRB), melanoma cell line SK-MEL-5; assay type: cell-based, human; details: Homo sapiens, read-out: IC50 against melanoma cell line in vitro
Description: as §1, with “Briefly, human cell lines were allowed to grow in an RPMI 1640 medium containing 5% FBS and 2 mM L-glutamine.” left out
as §2, with “Bound stain was subsequently solubilized with 10 mM Trizma base, and the absorbance was read on an automated plate reader at a wavelength of 515 nm.” left out

[4] = biological target: B-RAF (Homo sapiens (Human), UniProt P15056); assay: Protein kinase enzymatic activity (Reaction Biology kinase hotspot, 33P-ATP); assay type: biochemical; details: read-out: Inhibitory effect against kinase activity, B-RAF (IC50)
Description: (§3) Reaction biology kinase hotspot service (http://www.reactionbiology.com) was used to measure IC50. In a final reaction volume of 25 μL, kinase (5 mU to 10 mU) was incubated with 25 mM Tris (pH 7.5), 0.02 mM EGTA, 0.66 mg/ml of myelin basic protein, 10 mM magnesium acetate, and [^33P-ATP] (specific activity of about 500 CPM/pmol, concentration as required). The reaction was initiated by addition of Mg-ATP mix. After incubation for 40 min at room temperature, the reaction was stopped by addition of 5 μl of a 3% phosphoric acid solution. 10 μL of the reaction was then spotted onto a P30 filtermat and washed three times for 5 minutes in 75 mM phosphoric acid and once in methanol prior to drying and scintillation counting.

[5] = biological target: C-RAF (Homo sapiens (Human), UniProt P04049, Y340D/Y341D); assay: as above; assay type: biochemical; details: read-out: Inhibitory effect against kinase activity, C-RAF (IC50)
Description: as §3

[6] = tested on: MDA-MB-435; assay: NCI cancer cell line panel screening (SRB), melanoma cell line MDA-MB-435; assay type: cell-based; details: Homo sapiens, read-out: IC50 against melanoma cell line in vitro
Description: as §1, §2

[7] = tested on: A375; assay: NCI cancer cell line panel screening (SRB), melanoma cell line A375; assay type: cell-based; details: Homo sapiens, A-375, read-out: IC50 against melanoma cell line in vitro
Description: as §1, §2

Sequence of C-RAF (P04049 306-648 Y340D/Y341D limits assumed): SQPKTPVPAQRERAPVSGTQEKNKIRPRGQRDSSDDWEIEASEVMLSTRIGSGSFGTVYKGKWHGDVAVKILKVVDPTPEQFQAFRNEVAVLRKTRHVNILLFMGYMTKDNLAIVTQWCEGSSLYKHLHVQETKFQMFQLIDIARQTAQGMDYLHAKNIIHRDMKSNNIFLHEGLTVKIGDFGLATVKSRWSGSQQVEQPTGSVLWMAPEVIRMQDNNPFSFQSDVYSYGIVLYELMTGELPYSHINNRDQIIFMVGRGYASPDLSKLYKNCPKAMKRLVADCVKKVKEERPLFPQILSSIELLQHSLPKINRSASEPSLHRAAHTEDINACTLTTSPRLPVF
Sequence of B-RAF (P15056 whole entry): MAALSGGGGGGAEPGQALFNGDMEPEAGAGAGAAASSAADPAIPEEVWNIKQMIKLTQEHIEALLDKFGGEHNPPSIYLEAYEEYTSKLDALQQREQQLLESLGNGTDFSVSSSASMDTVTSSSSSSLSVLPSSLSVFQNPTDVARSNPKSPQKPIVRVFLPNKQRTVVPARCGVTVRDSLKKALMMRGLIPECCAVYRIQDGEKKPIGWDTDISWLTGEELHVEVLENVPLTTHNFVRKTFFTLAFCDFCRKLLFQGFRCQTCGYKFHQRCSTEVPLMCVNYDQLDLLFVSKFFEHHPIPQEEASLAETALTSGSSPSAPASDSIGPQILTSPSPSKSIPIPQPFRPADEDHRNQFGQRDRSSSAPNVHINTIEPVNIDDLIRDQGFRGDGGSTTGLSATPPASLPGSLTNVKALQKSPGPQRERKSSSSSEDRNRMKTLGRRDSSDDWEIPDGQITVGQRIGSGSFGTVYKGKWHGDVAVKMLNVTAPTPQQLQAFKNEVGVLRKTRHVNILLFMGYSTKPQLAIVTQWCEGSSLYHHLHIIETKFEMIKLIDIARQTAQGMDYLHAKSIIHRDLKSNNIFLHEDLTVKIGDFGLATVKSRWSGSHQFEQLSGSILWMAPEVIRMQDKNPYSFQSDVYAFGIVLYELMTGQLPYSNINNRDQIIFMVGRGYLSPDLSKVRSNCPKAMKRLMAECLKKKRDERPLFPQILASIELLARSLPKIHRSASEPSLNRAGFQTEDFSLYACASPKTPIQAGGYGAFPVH

Compound: CCN1CCN(CCNc2nccc(-c3c(-c4cccc(O)c4)nc4occn34)n2)S1(=O)=O [2II, 2-Ethyl-5-(2-((4-(6-(3-hydroxylphenyl)imidazo[2,1-b]oxazol-5-yl)pyrimidin-2-yl)amino)ethyl)-1,2,5-thiadiazolidine 1,1-dioxide]
- pIC50 [1]: 7.15
- pIC50 [2]: 6.85
- pIC50 [3]: 5.20
- pIC50 [4]: > 10.40
- pIC50 [5]: 9.12
- pIC50 [6]: 6.43
- pIC50 [7]: 6.72
